Laboratory results published in patent US20260101897A1, “PLANT ENVIRONMENTAL STRESS TOLERANCE IMPROVEMENT AGENT AND ENVIRONMENTAL STRESS TOLERANCE IMPROVEMENT METHOD” (priority 2022, published 2026).

Columns and labels:
Assay type in all cases: in vivo
soybean plant = assay: Evaluation Example 6: tolerance to drying stress, leaf mortality; conditions: for Leaf mortality rate / Environmental stress suppressing rate: drying stress Yes; for Leaf mortality rate: 7 days after stoppage of water
Description: EGT and GB were commercially available products, and pure water was used as a solvent. In a 60 mm square plastic pot having a height of 66 mm, 150 ml of granular soil (Kumiai horticultural soil) was placed, and one individual soybean plant was seeded per pot. They were managed in a greenhouse set at room temperature of 25° C. EGT in an amount of 50 mL or GB in an amount of 50 mL was added on the 23rd day after seeding, and drying stress was applied by stopping water supply for 7 days after the addition of EGT or GB. Dead leaves were counted 7 days after the stoppage of water, and the leaf mortality rate was evaluated as an index of physiological disorder. The leaf mortality rate and the environmental stress suppressing rate were calculated according to the following formulas. [formula] [formula]

radish (Akamaru Hatsuka) = assay: Evaluation Example 7: tolerance to drying stress, leaf mortality; conditions: for Leaf mortality rate: test compound 0.5 mM (50 mL), water supply stopped 7 days twice; for Leaf mortality rate / Environmental stress suppressing rate: drying stress Yes; for Environmental stress suppressing rate: test compound 0.5 mM
Description: EGT and GB were commercially available products, and pure water was used as a solvent. In a plastic pot having a diameter of 135 mm and a height of 110 mm, 1 kg of granular soil (Kumiai horticultural soil) was placed, and 5 individual radish (Akamaru Hatsuka) was seeded per pot. They were managed in a greenhouse set at room temperature of 25° C. EGT in an amount of 50 mL or GB in an amount of 50 mL was added on the 22nd day after seeding, and water supply was stopped for 7 days. After cultivation under water supply for 7 days, drying stress was applied by stopping water supply for 7 days again. The dead leaves of radish were counted after the drying stress was applied, and the leaf mortality rate was evaluated as an index of physiological disorder. The leaf mortality rate and the environmental stress suppressing rate were calculated according to the following formulas. [formula] [formula]

wheat = assay: Evaluation Example 10: tolerance to ultraviolet stress, leaf mortality; conditions: for Environmental stress suppressing rate: ultraviolet stress Yes
Description: EGT (Examples 12 and 13, Comparative Examples 37 and 38) or GB (Comparative Examples 35, 36, 39, and 40) was prepared so as to have a concentration shown in Table 10 below. EGT and GB were commercially available products, and pure water was used as a solvent.
(§1) 5 mL of pure water was added to 9-cm petri dishes on which filter paper was placed, and 10 wheat seeds were seeded per petri dish. They were located in a growth chamber set at room temperature of 22° C., and the light period was 16 hours and the dark period was 8 hours. The light conditions were set such that the light intensity was 5000 lx in the central part under irradiation with the fluorescent lamp.
On the 7th day after seeding, pure water in the petri dish was removed, 5 mL of EGT or 5 mL of GB was added to the petri dish, and one day after that, ultraviolet stress was applied by exposure for one hour under irradiation with an ultraviolet lamp (GL-15, manufactured by Toshiba Corporation) with the intensity of ultraviolet radiation of a wavelength of 254 nm set to 550 μW/cm^−2.
The dead leaves were counted 6 days after the ultraviolet stress was applied, and the leaf mortality rate was evaluated as an index of physiological disorder. The leaf mortality rate and the environmental stress suppressing rate were calculated according to the following formulas.

rapeseed = assay: Evaluation Example 9: tolerance to excessive water stress, plant mortality; conditions: for Environmental stress suppressing rate: excessive water stress Yes
Description: EGT (Example 11, Comparative Example 31) or GB (Comparative Examples 30 and 32) was prepared so as to have a concentration shown in Table 9 below. EGT and GB were commercially available products, and pure water was used as a solvent.
as §1, with “12 rapeseed” for “10 wheat”
On the sixth day after seeding, pure water in the petri dish was removed, 5 mL of EGT or 5 mL of GB was added to the petri dish, and one day after that, 50 mL of pure water was added to the petri dish to apply excessive water stress.
5 The surviving plants were counted 19 days after the excessive water stress was applied, and the mortality rate of the plants was evaluated as an index of physiological disorder. The mortality rate and the environmental stress suppressing rate were calculated according to the following formulas.

turf (Manila grass) = assay: Evaluation Example 11: tolerance to ultraviolet stress, leaf mortality; conditions: for Environmental stress suppressing rate: ultraviolet stress Yes
Description: EGT (Examples 14 and 15, Comparative Examples 45 and 46) or GB (Comparative Examples 43, 44, 47 and 48) was prepared so as to have a concentration shown in Table 11 below. EGT and GB were commercially available products, and pure water was used as a solvent.
Turf (Manila grass) cut into a 50 mm square was placed on a petri dish and managed in a greenhouse at room temperature of 25° C. The plant height was trimmed to the length of 10 mm. 10 mL of EGT or 10 ml of GB was added per petri dish, and one day after that, ultraviolet stress was applied by exposure for one hour under irradiation with an ultraviolet lamp (GL-15, manufactured by Toshiba Corporation) with the intensity of ultraviolet radiation of a wavelength of 254 nm set to 525 μW/cm^−2.
Dead leaves were counted 7 days after the ultraviolet stress was applied, and the leaf mortality rate was evaluated as an index of physiological disorder. The leaf mortality rate and the environmental stress suppressing rate were calculated according to the following formulas.

[1] = test compound 0.1 mM (5 mL), ultraviolet stress Yes (254 nm, one hour), 6 days after stress
[2] = test compound 0.1 mM, ultraviolet stress No
[3] = test compound 1 mM (5 mL), ultraviolet stress Yes (254 nm, one hour), 6 days after stress
[4] = test compound 1 mM, ultraviolet stress No
[5] = test compound 0.1 mM (5 mL), excessive water stress Yes (50 mL pure water per petri dish), 19 days after stress
[6] = test compound 0.1 mM, excessive water stress No
[7] = test compound 0.1 mM (10 mL), ultraviolet stress Yes (254 nm, one hour), 7 days after stress
[8] = test compound 1 mM (10 mL), ultraviolet stress Yes (254 nm, one hour), 7 days after stress
[9] = GB 1 mM and 0.1 mM, ultraviolet stress

SMILES	Leaf mortality rate (soybean plant; test compound 0.1 mM (50 mL))	Environmental stress suppressing rate (soybean plant; test compound 0.1 mM)	Leaf mortality rate (soybean plant; test compound 1 mM (50 mL))	Environmental stress suppressing rate (soybean plant; test compound 1 mM)	Leaf mortality rate (radish (Akamaru Hatsuka))	Environmental stress suppressing rate (radish (Akamaru Hatsuka))	Leaf mortality rate (wheat; [1])	Leaf mortality rate (wheat; [2])	Environmental stress suppressing rate (wheat; test compound 0.1 mM)	Leaf mortality rate (wheat; [3])	Leaf mortality rate (wheat; [4])	Environmental stress suppressing rate (wheat; test compound 1 mM)	Mortality rate (rapeseed; [5])	Mortality rate (rapeseed; [6])	Environmental stress suppressing rate (rapeseed; test compound 0.1 mM)	Leaf mortality rate (turf (Manila grass); [7])	Leaf mortality rate (turf (Manila grass); [2])	Environmental stress suppressing rate (turf (Manila grass); test compound 0.1 mM)	Leaf mortality rate (turf (Manila grass); [8])	Leaf mortality rate (turf (Manila grass); [4])	other results
C[N+](C)(C)[C@@H](Cc1c[nH]c(=S)[nH]1)C(=O)[O-] [EGT, L-(+)-ergothioneine]	55%	11%	38%	39%	17%	71%	34%	1%	36%	23%	0%	57%	25%	0%	58%	13%	2%	79%	6%	0%	Environmental stress suppressing rate (turf (Manila grass); test compound 1 mM): 90%
C[N+](C)(C)CC(=O)[O-] [GB, glycine betaine, reference compound]	71%	0%	62%	0%	73%	0%	50%	5%	6%	44%	0%	17%	60%	0%	0%	54%	2%	14%	59%	0%	mortality rate due to drying stress, result in words (soybean plant; GB 1 mM and 0.1 mM, drying stress): not suppressed; mortality rate due to drying stress, result in words (radish (Akamaru Hatsuka); 0.5 mM, drying stress): not suppressed; mortality rate due to ultraviolet stress, result in words (wheat; [9]): hardly suppressed; mortality rate due to excessive water stress, result in words (rapeseed; 0.1 mM, excessive water stress): not suppressed; mortality rate due to ultraviolet stress, result in words (turf (Manila grass); [9]): hardly suppressed; Environmental stress suppressing rate (turf (Manila grass); test compound 1 mM): 6%
